# Results from ChEMBL document CHEMBL1909046, “DrugMatrix in vitro pharmacology data”.
# Target: Beta-1 adrenergic receptor (Homo sapiens, UniProt P08588)
# Assay: DRUGMATRIX: Adrenergic beta1 radioligand binding (ligand: [125I] Cyanopindolol)
# Format: cell membranes, CHO-K1, Membrane
# Details: cho-k1; Not Active = under 50% inhibition at 10 µM
# Beta-1 adrenergic receptor, sequence (P08588 whole entry): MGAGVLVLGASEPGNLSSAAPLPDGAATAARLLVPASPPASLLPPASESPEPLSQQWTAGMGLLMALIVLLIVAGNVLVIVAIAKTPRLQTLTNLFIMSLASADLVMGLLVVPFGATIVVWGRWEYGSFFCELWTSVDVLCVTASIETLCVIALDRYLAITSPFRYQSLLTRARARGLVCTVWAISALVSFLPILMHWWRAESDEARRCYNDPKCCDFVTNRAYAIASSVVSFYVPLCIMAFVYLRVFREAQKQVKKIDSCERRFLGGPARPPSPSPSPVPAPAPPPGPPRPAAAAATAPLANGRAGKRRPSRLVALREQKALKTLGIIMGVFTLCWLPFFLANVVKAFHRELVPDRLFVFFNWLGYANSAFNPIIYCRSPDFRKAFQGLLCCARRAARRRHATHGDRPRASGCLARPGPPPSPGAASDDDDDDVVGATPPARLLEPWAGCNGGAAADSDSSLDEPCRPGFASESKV
row,Compound,IC50
1,COc1c(N2CCNC(C)C2)c(F)cc2c(=O)c(C(=O)O)cn(C3CC3)c12 (stereo not drawn) [GATIFLOXACIN],Not Active
2,CNCCC=C1c2ccccc2CCc2ccccc21 [NORTRIPTYLINE],Not Active
3,CN(C)CCCC1(c2ccc(F)cc2)OCc2cc(C#N)ccc21 (stereo not drawn) [CITALOPRAM],Not Active

# Target: T1, D(4) dopamine receptor (Homo sapiens, UniProt P21917)
# T1 sequence (P21917 whole entry): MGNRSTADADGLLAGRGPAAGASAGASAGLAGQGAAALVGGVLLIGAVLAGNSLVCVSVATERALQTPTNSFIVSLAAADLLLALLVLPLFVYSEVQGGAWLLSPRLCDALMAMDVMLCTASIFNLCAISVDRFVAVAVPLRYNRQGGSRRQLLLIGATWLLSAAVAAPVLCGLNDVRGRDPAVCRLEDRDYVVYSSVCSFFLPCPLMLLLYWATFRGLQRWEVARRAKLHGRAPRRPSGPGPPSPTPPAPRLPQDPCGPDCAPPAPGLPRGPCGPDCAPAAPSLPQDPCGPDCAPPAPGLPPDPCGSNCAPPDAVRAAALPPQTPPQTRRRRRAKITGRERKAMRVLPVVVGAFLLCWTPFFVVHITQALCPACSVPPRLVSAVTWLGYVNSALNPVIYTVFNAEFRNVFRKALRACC
# Assay: DRUGMATRIX: Dopamine D4.2 radioligand binding (ligand: [3H] Spiperone)
# Format: cell membranes, CHO-K1, Membrane
# Details: cho-k1; Not Active = under 50% inhibition at 10 µM
row,Compound,IC50
1,COc1c(N2CCNC(C)C2)c(F)cc2c(=O)c(C(=O)O)cn(C3CC3)c12 (stereo not drawn) [GATIFLOXACIN],Not Active
2,CNCCC=C1c2ccccc2CCc2ccccc21 [NORTRIPTYLINE],Not Active
3,CN(C)CCCC1(c2ccc(F)cc2)OCc2cc(C#N)ccc21 (stereo not drawn) [CITALOPRAM],Not Active

# Target: Melanocortin receptor 4 (Homo sapiens, UniProt P32245); further: in other assays of this panel Not Active means under 50% inhibition at 10 µM
# Assay: not given
# Format: cell membranes, Membrane
# Details: hek293
# Melanocortin receptor 4, sequence (P32245 whole entry): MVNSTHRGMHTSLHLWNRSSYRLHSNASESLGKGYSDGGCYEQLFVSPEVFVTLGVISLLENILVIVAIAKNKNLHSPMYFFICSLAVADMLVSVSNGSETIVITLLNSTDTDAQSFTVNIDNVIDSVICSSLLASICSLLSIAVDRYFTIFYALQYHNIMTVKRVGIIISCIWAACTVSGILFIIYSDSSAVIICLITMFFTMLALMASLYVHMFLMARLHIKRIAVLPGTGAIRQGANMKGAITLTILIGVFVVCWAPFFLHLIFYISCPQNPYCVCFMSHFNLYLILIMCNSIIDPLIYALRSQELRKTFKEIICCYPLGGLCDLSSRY
row,Compound,IC50
1,COc1c(N2CCNC(C)C2)c(F)cc2c(=O)c(C(=O)O)cn(C3CC3)c12 (stereo not drawn) [GATIFLOXACIN],Not Active
2,CNCCC=C1c2ccccc2CCc2ccccc21 [NORTRIPTYLINE],Not Active
3,CN(C)CCCC1(c2ccc(F)cc2)OCc2cc(C#N)ccc21 (stereo not drawn) [CITALOPRAM],Not Active

# Tested on: not listed separately
# Assay: DRUGMATRIX: beta-Lactamase enzyme inhibition (substrate: Nitrocefin)
# Design: species or system Bacillus cereus
# Details: Not Active = under 50% inhibition at 10 µM
Compound,IC50,Ki
COc1c(N2CCNC(C)C2)c(F)cc2c(=O)c(C(=O)O)cn(C3CC3)c12 (stereo not drawn) [GATIFLOXACIN],Not Active,Not Active
CNCCC=C1c2ccccc2CCc2ccccc21 [NORTRIPTYLINE],Not Active,Not Active
CN(C)CCCC1(c2ccc(F)cc2)OCc2cc(C#N)ccc21 (stereo not drawn) [CITALOPRAM],Not Active,Not Active

# Target: Mu-type opioid receptor (Homo sapiens, UniProt P35372)
# Assay: DRUGMATRIX: Opiate mu (OP3, MOP) radioligand binding (ligand: [3H] Diprenorphine)
# Format: cell membranes, CHO-K1, Membrane
# Details: cho-k1; Not Active = under 50% inhibition at 10 µM
# Mu-type opioid receptor, sequence (P35372 whole entry): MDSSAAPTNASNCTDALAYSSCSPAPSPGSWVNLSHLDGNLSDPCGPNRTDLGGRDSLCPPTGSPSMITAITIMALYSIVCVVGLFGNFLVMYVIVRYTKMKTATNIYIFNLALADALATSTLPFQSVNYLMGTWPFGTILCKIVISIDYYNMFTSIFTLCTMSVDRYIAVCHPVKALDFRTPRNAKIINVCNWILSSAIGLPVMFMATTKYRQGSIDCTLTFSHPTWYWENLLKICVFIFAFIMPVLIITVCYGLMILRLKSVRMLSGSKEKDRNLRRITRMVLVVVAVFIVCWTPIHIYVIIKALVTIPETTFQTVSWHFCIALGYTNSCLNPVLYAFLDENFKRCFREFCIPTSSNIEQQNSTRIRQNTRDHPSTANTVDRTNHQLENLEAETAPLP
row,Compound,IC50
1,COc1c(N2CCNC(C)C2)c(F)cc2c(=O)c(C(=O)O)cn(C3CC3)c12 (stereo not drawn) [GATIFLOXACIN],Not Active
2,CNCCC=C1c2ccccc2CCc2ccccc21 [NORTRIPTYLINE],Not Active
3,CN(C)CCCC1(c2ccc(F)cc2)OCc2cc(C#N)ccc21 (stereo not drawn) [CITALOPRAM],Not Active

# Target: T2, Cathepsin G (Homo sapiens, UniProt P08311);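 further: inhibition of Cathepsin G enzyme activity, tested on an AMC-conjugated peptide substrate; in other assays of this panel Not Active means under 50% inhibition at 10 µM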
# T2 sequence (P08311 whole entry): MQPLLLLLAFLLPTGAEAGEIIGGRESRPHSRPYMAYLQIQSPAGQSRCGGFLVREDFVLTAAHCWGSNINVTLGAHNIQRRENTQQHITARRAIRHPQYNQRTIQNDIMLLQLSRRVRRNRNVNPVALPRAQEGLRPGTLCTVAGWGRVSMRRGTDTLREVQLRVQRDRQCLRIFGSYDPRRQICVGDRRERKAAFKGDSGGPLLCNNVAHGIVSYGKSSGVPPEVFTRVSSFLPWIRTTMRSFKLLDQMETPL
# Assay: not given
# Format: tissue-based
# Details: neutrophil
row,Compound,IC50
1,COc1c(N2CCNC(C)C2)c(F)cc2c(=O)c(C(=O)O)cn(C3CC3)c12 (stereo not drawn) [GATIFLOXACIN],Not Active
2,CNCCC=C1c2ccccc2CCc2ccccc21 [NORTRIPTYLINE],Not Active
3,CN(C)CCCC1(c2ccc(F)cc2)OCc2cc(C#N)ccc21 (stereo not drawn) [CITALOPRAM],Not Active

# Tested on: not listed separately
# Assay: DRUGMATRIX: Leukotriene, BLT (LTB4) radioligand binding (ligand: [3H]LTB4)
# Format: cell membranes, Membrane
# Details: u-937; Not Active = under 50% inhibition at 10 µM
Compound,IC50,Ki
COc1c(N2CCNC(C)C2)c(F)cc2c(=O)c(C(=O)O)cn(C3CC3)c12 (stereo not drawn) [GATIFLOXACIN],Not Active,Not Active
CNCCC=C1c2ccccc2CCc2ccccc21 [NORTRIPTYLINE],Not Active,Not Active
CN(C)CCCC1(c2ccc(F)cc2)OCc2cc(C#N)ccc21 (stereo not drawn) [CITALOPRAM],Not Active,Not Active

# Target: T3, 5-hydroxytryptamine receptor 2C (Homo sapiens, UniProt P28335)
# T3 sequence (P28335 whole entry): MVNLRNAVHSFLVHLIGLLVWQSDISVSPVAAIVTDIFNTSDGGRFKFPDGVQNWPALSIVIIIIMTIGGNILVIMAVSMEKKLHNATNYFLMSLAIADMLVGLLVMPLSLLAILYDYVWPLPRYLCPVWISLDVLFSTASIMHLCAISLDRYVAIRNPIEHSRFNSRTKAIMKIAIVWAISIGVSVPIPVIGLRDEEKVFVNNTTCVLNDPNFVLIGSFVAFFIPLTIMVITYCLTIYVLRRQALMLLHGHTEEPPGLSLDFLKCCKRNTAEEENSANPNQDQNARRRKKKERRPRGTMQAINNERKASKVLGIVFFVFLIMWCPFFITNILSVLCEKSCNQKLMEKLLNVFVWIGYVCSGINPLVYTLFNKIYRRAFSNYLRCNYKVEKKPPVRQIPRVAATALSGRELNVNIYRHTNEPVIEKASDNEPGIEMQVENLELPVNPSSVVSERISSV
# Assay: DRUGMATRIX: Serotonin (5-Hydroxytryptamine) 5-HT2C radioligand binding (ligand: [3H] Mesulergine)
# Format: cell membranes, CHO-K1, Membrane
# Details: cho-k1; Not Active = under 50% inhibition at 10 µM
row,Compound,IC50
1,COc1c(N2CCNC(C)C2)c(F)cc2c(=O)c(C(=O)O)cn(C3CC3)c12 (stereo not drawn) [GATIFLOXACIN],Not Active

# Target: T4, Caspase-1 (Homo sapiens, UniProt P29466);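 further: Caspase-1 enzyme inhibition assay with a peptide substrate; in other assays of this panel Not Active means under 50% inhibition at 10 µM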
# T4 sequence (P29466 whole entry): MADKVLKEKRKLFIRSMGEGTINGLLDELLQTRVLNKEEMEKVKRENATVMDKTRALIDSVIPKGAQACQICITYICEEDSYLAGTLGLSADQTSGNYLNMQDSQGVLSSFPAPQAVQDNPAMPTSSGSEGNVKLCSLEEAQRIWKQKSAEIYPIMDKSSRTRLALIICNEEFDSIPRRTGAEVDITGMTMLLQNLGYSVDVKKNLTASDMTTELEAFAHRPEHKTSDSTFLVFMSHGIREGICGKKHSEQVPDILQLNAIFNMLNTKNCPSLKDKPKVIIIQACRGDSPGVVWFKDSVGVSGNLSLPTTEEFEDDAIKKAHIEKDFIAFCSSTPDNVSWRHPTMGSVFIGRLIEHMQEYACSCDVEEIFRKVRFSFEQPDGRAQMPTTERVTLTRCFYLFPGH
# Assay: not given
# Design: species or system Escherichia coli
# Details: not given
row,Compound,IC50
1,COc1c(N2CCNC(C)C2)c(F)cc2c(=O)c(C(=O)O)cn(C3CC3)c12 (stereo not drawn) [GATIFLOXACIN],Not Active
2,CNCCC=C1c2ccccc2CCc2ccccc21 [NORTRIPTYLINE],Not Active
3,CN(C)CCCC1(c2ccc(F)cc2)OCc2cc(C#N)ccc21 (stereo not drawn) [CITALOPRAM],Not Active

# Target: Tyrosine-protein kinase Fyn (Homo sapiens, UniProt P06241);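 further: enzymatic inhibition of Fyn kinase activity measured with Poly(Glu:Tyr) as the phosphorylation substrate; in other assays of this panel Not Active means under 50% inhibition at 10 µM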
# Assay: biochemical
# Format: cell-based, Insect cells
# Details: insect cells
# Tyrosine-protein kinase Fyn, sequence (P06241 whole entry): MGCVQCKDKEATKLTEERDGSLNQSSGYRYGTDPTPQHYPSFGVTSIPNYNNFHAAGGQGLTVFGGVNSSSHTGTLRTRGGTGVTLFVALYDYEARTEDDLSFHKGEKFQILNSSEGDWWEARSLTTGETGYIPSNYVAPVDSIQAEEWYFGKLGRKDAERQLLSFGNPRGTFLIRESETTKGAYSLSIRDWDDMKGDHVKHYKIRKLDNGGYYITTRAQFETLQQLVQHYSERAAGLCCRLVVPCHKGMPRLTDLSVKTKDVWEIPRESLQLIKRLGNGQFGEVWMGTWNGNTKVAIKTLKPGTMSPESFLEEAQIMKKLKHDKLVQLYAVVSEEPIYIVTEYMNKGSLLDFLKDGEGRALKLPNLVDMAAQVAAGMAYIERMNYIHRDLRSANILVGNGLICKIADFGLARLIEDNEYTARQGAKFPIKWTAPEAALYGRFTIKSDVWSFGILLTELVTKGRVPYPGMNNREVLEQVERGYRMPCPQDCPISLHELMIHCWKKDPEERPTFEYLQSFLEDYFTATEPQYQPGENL
row,Compound,IC50
1,COc1c(N2CCNC(C)C2)c(F)cc2c(=O)c(C(=O)O)cn(C3CC3)c12 (stereo not drawn) [GATIFLOXACIN],Not Active
2,CNCCC=C1c2ccccc2CCc2ccccc21 [NORTRIPTYLINE],Not Active
3,CN(C)CCCC1(c2ccc(F)cc2)OCc2cc(C#N)ccc21 (stereo not drawn) [CITALOPRAM],Not Active

# Target: 5-hydroxytryptamine receptor 1B (Rattus norvegicus, UniProt P28564); further: in other assays of this panel Not Active means under 50% inhibition at 10 µM
# Assay: not given
# Format: cell membranes, Wistar, Cerebral cortex, Membrane
# Details: not given
# 5-hydroxytryptamine receptor 1B, sequence (P28564 whole entry): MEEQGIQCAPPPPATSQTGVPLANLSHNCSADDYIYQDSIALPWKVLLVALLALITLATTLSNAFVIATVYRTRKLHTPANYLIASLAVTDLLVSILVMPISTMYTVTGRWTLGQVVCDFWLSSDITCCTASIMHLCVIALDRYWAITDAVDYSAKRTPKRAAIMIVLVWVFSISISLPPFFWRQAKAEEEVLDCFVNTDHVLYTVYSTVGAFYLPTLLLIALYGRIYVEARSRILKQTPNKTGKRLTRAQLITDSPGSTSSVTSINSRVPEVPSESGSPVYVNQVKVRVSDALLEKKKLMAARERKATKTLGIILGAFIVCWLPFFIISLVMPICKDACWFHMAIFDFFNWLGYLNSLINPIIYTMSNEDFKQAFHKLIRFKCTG
row,Compound,IC50
1,COc1c(N2CCNC(C)C2)c(F)cc2c(=O)c(C(=O)O)cn(C3CC3)c12 (stereo not drawn) [GATIFLOXACIN],Not Active
2,CN(C)CCCC1(c2ccc(F)cc2)OCc2cc(C#N)ccc21 (stereo not drawn) [CITALOPRAM],Not Active

# Same assay, conditions: read-out: IC50
row,Compound,IC50 [µM]
1,CNCCC=C1c2ccccc2CCc2ccccc21 [NORTRIPTYLINE],3.2

# Same assay, conditions: read-out: Ki
row,Compound,Ki [nM]
1,CNCCC=C1c2ccccc2CCc2ccccc21 [NORTRIPTYLINE],1450

# Tested on: not listed separately
# Assay: DRUGMATRIX: Purinergic P2X radioligand binding (ligand: [3H] alpha, beta-Methylene-ATP)
# Format: cell membranes, Oryctolagus cuniculus, New Zealand albino, Urinary bladder, Membrane
# Details: Not Active = under 50% inhibition at 10 µM
Compound,IC50,Ki
COc1c(N2CCNC(C)C2)c(F)cc2c(=O)c(C(=O)O)cn(C3CC3)c12 (stereo not drawn) [GATIFLOXACIN],Not Active,Not Active
CNCCC=C1c2ccccc2CCc2ccccc21 [NORTRIPTYLINE],Not Active,Not Active
CN(C)CCCC1(c2ccc(F)cc2)OCc2cc(C#N)ccc21 (stereo not drawn) [CITALOPRAM],Not Active,Not Active

# Target: Epidermal growth factor receptor (Homo sapiens, UniProt P00533)
# Assay: DRUGMATRIX: Protein Tyrosine Kinase, EGF Receptor enzyme inhibition (substrate: Poly(Glu:Tyr))
# Format: cell-based, Insect cells
# Details: insect cells; Not Active = under 50% inhibition at 10 µM
# Epidermal growth factor receptor, sequence (P00533 whole entry): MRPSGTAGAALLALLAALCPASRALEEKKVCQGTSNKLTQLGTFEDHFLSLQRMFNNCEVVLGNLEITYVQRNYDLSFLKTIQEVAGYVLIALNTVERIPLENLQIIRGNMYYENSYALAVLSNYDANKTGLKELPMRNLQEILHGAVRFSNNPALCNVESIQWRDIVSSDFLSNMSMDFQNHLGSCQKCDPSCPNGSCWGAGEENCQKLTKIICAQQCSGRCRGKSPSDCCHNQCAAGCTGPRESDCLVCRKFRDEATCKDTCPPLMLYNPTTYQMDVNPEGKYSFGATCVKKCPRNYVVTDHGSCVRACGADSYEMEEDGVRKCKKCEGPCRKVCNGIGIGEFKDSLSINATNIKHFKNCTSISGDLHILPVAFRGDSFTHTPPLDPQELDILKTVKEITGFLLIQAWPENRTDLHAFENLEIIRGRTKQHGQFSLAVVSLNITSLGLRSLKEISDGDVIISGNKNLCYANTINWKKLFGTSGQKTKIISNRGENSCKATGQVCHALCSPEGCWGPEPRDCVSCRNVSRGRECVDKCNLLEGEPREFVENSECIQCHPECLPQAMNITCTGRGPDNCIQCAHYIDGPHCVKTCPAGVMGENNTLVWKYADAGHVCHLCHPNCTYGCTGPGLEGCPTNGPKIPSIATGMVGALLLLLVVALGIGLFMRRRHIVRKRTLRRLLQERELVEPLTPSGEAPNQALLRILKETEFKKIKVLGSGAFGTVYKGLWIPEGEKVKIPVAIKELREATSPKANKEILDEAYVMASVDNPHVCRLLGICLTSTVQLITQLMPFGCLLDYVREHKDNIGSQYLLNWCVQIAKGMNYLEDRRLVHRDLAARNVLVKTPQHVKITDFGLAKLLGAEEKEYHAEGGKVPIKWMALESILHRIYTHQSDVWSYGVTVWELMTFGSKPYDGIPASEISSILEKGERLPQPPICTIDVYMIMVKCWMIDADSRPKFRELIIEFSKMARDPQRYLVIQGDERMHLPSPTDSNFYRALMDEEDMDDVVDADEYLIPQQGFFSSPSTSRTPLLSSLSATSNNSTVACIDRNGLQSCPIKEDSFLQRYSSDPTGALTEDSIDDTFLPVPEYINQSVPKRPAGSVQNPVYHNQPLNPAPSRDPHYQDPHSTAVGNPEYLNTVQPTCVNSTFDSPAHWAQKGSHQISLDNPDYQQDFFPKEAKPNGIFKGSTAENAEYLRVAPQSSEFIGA
row,Compound,IC50
1,CNCCC=C1c2ccccc2CCc2ccccc21 [NORTRIPTYLINE],Not Active
2,CN(C)CCCC1(c2ccc(F)cc2)OCc2cc(C#N)ccc21 (stereo not drawn) [CITALOPRAM],Not Active

# Target: T5, Cysteinyl leukotriene receptor 1 (Homo sapiens, UniProt Q9Y271); further: in other assays of this panel Not Active means under 50% inhibition at 10 µM
# T5 sequence (Q9Y271 whole entry): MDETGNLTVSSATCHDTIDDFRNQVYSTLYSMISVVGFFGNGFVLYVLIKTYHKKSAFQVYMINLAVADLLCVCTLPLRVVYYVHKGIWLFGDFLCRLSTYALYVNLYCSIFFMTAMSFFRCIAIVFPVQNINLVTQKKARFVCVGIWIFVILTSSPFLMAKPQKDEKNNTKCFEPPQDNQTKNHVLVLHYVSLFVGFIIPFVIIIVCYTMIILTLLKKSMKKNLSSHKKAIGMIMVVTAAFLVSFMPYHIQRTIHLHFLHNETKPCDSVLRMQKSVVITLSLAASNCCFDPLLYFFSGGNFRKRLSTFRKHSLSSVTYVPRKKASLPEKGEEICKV
# Assay: not given
# Format: cell membranes, CHO-K1, Membrane
# Details: cho-k1
row,Compound,IC50
1,COc1c(N2CCNC(C)C2)c(F)cc2c(=O)c(C(=O)O)cn(C3CC3)c12 (stereo not drawn) [GATIFLOXACIN],Not Active
2,CNCCC=C1c2ccccc2CCc2ccccc21 [NORTRIPTYLINE],Not Active
3,CN(C)CCCC1(c2ccc(F)cc2)OCc2cc(C#N)ccc21 (stereo not drawn) [CITALOPRAM],Not Active

# Target: Melanocortin receptor 5 (Homo sapiens, UniProt P33032); further: in other assays of this panel Not Active means under 50% inhibition at 10 µM
# Assay: not given
# Format: cell membranes, HEK293, Membrane
# Details: hek293
# Melanocortin receptor 5, sequence (P33032 whole entry): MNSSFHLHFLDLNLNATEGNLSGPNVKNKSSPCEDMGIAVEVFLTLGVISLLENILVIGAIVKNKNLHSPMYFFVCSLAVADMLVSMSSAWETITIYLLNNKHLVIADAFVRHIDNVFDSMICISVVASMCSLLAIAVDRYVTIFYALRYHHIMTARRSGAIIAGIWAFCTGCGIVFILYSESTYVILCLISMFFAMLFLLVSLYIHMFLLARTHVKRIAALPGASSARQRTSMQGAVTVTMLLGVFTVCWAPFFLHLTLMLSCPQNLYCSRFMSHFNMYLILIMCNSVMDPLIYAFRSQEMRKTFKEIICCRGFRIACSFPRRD
row,Compound,IC50
1,COc1c(N2CCNC(C)C2)c(F)cc2c(=O)c(C(=O)O)cn(C3CC3)c12 (stereo not drawn) [GATIFLOXACIN],Not Active
2,CNCCC=C1c2ccccc2CCc2ccccc21 [NORTRIPTYLINE],Not Active
3,CN(C)CCCC1(c2ccc(F)cc2)OCc2cc(C#N)ccc21 (stereo not drawn) [CITALOPRAM],Not Active

# Tested on: not listed separately
# Assay: DRUGMATRIX: Sigma2 radioligand binding (ligand: [3H] Ifenprodil)
# Format: cell membranes, Rattus norvegicus, Wistar, Brain, Membrane
# Details: Not Active = under 50% inhibition at 10 µM
Compound,IC50,Ki
COc1c(N2CCNC(C)C2)c(F)cc2c(=O)c(C(=O)O)cn(C3CC3)c12 (stereo not drawn) [GATIFLOXACIN],Not Active,Not Active
CNCCC=C1c2ccccc2CCc2ccccc21 [NORTRIPTYLINE],Not Active,Not Active
CN(C)CCCC1(c2ccc(F)cc2)OCc2cc(C#N)ccc21 (stereo not drawn) [CITALOPRAM],Not Active,Not Active
